pEC50: −log10 of the molar value. Read-outs that look alike come from different tables or passages of the source.
Experiments:
[1] = tested on: PC3 (androgen independent) prostate tumor cells; experiment: Growth inhibition of prostate tumor cells, modified MTT assay; assay type: cell-based
Description: (§1) PC3 cells (filled circles) are hormone independent cells, whereas, LNCaP (opend circles) are hormone dependent cells. Y-axis indicates percentage of cell growth as measured by a modified MTT assay. X-axis in the concentration (mM) of Angeli's salt added every 24 hrs for a total of 72 hours.
(§2) A characteristic feature of PC3 (androgen independent) and LNCaP (androgen dependent) prostate tumor cells is the overexpression of an intrinsic plasma membrane Na^+/K^+ pump regulatory protein, MAT-8. As described above, overexpression of MAT-8 is a property shared with breast, pancreatic and lung carcinomas. The growth inhibition of PC3 and LNCaP cells by nitroxyl (HNO) donated by Angeli's salt (AS) was investigated.
(§3) PC3 (2500 cells/well) and LNCaP (4000 cells/well) cells were cultured in 200 μl of incubation media in each well of a 96-well assay plate 24 hours prior to the addition of AS. Following an overnight incubation at 37° C., appropriate AS concentrations were added to each well from a fresh stock solution of 0.5 M AS (Na2N2O3) in 10 mM NaOH (added to stabilize AS) diluted to 30 mM with cell culture medium. AS/HNO was added every 24 hours for a total of 72 hours. Cell viability was assayed using the MTT assay, a colorimetric method performed with minor modification according to the procedure of Mossman (1983) J. Immunol. Methods 65:55-63.

[2] = tested on: LNCaP (androgen dependent) prostate tumor cells; experiment: as above; assay type: cell-based
Description: as §1, §2, §3

SERCA2a = target: T1, SERCA2a (Canis lupus familiaris, UniProt O46674); experiment: EGTA-induced dephosphorylation (E2P hydrolysis) in native cardiac SR vesicles, quenched-flow mixing; assay type: biochemical, dog; settings: 0.25 mM AS, 24° C.
T1 construct: native cardiac SR vesicles isolated from dog heart; from tissue; host or cells: dog heart, sarcoplasmic reticulum vesicles
T1 sequence (P61012 whole entry partner): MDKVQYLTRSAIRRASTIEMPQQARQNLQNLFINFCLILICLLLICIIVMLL
T1 sequence (O46674 whole entry): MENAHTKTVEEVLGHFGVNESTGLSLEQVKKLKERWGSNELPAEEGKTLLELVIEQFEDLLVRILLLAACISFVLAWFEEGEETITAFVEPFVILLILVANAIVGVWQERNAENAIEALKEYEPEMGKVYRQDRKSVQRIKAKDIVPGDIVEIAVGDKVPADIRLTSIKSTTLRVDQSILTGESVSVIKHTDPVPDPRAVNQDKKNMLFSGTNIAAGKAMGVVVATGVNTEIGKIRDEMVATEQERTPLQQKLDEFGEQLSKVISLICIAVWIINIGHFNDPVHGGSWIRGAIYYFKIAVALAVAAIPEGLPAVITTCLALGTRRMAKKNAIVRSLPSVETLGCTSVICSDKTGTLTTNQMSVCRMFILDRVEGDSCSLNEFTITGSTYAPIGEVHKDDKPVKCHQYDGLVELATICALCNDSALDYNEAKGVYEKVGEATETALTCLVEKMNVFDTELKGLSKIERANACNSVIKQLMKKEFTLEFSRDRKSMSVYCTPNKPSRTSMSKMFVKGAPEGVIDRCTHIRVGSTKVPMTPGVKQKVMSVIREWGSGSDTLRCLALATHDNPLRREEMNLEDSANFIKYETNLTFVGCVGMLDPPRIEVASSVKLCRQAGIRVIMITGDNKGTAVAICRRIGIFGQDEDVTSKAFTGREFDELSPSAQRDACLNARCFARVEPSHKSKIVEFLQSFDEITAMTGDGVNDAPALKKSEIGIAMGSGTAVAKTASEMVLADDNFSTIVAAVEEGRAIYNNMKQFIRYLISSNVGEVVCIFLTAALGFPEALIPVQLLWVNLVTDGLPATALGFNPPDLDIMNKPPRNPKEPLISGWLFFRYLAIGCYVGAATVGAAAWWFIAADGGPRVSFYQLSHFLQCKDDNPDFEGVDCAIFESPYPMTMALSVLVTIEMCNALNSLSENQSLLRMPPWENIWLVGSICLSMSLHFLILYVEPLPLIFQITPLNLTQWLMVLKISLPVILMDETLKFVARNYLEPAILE
Description: Y-axis indicates the level of E2P (nmol/mg), which undergoes hydrolysis in step 6 of FIG. 3. X-axis indicates time following addition of Angeli's salt (sec). The inset figure represents a normalized comparison of E2P hydrolysis in the presence (+AS) or absence (−AS) of Angeli's salt.
Investigations of the mechanism of the cardiac muscle sarcoplasmic reticulum (SR) Ca^2+ pump (SERCA2a) have provided a paradigm for understanding how the interaction of nitroxyl with a regulatory protein (phospholamban) can activate the pump. SERCA2a is a P-type cation pump, i.e., it utilizes ATP as its energy source for uphill Ca^2+ transport and becomes phosphorylated by ATP during the catalytic cycle (FIG. 3). Regulation of its activity by the small intrinsic cardiac SR membrane protein, phospholamban (PLB), involves primarily steps 6 and 8 which are rate-limiting in the overall transport cycle and control Vmax (steps 6 and 8) and the affinity of the cytoplasmic Ca^2+ transport sites, Km (step 8). Mahaney et al. (2005) Biochemistry 44:7713-7724 and Antipenko et al. (1997) Biochemistry 36:12903-12910. […]
SERCA2a was initially phosphorylated at the catalytic site using 10 μM [γ^32P]ATP and then subsequently dephosphorylated by chasing with 5 mM EGTA. […] In the absence of AS/HNO, E2P decay measured at 24° C. by quenched-flow mixing in dog cardiac SR is slow ([…]) and monophasic (FIG. 4).

SERCA2a alone = experiment: E2P hydrolysis in Sf21 ER microsomes after EGTA chase; assay type: biochemical; settings: 0.25 mM AS
Description: (§4) Nitroxyl (HNO) donated by Angeli's salt (AS) enhances intracellular Ca^2+ cycling in isolated cardiac myocytes by activating Ca^2+ release from ryanodine (RyR2) receptors and Ca^2+ re-uptake by the SR Ca^2+ pump. Tocchetti et al. (2007) Circ. Res. 100:96-104. In cardiac SR vesicles, activation of Ca^2+ uptake by HNO involves a direct interaction with the pump and is accompanied by enhanced dephosphorylation of the cardiac Ca^2+-ATPase isozyme, SERCA2a. To determine whether HNO interacts with SERCA2a or its regulatory protein, phospholamban (PLB) and to characterize the protein site(s) modified by HNO, activation of SERCA2a dephosphorylation by nitroxyl using SERCA2a and PLB (WT and mutant) expressed in Sf21 cell ER microsomes (baculovirus system) was investigated. Brief exposure of SERCA2a+WT PLB to 0.25 mM AS produced a 10-fold stimulation of dephosphorylation (0.5 s^−1→5 s^−1) following an EGTA chase (Table 2). […] Exposure to dithiothreitol (2 mM DTT) reversed the activation of dephosphorylation by nitroxyl, similar to its effect on HNO-induced activation of Ca^2+ release from the RyR2 receptor. Tocchetti et al. (2007) Circ. Res. 100:96-104.

SERCA2a + PLB (−C) = target: T2, SERCA2a + PLB (−C) (Homo sapiens, UniProt P16615+P26678, C36A/C41A/C46A); experiment: as above; assay type: biochemical
T2 construct: made in house; host or cells: Sf21 insect cells (baculovirus), ER microsomes
T2 sequence (P16615 1-997 isoform P16615-2, stated change not applied): as the sequence (O46674 whole entry) above, with S376T, K403N, P538S, V544I, N576H, S661N, S713A, D877E, L963V counted along it
T2 sequence (P26678 whole entry C36A/C41A/C46A): as the sequence (P61012 whole entry partner) above, with D2E, N27K, C36A, C41A, C46A counted along it
Description: as §4

SERCA2a + PLB (WT) = target: T3, SERCA2a + PLB (WT) (Canis lupus familiaris, UniProt O46674+P61012); experiment: as above; assay type: biochemical
T3 construct: made in house; host or cells: Sf21 insect cells (baculovirus), ER microsomes
T3 sequence (P61012 whole entry): as the sequence (P61012 whole entry partner) above
T3 sequence (O46674 whole entry): as the sequence (O46674 whole entry) above
Description: as §4

SR Ca^2+ pump (SERCA2a) = target: T4, SR Ca^2+ pump (SERCA2a) (Mus musculus, UniProt O55143); settings: brief exposure to AS (0.25 mM); SR vesicles from mouse heart; cited from earlier work
T4 construct: Using SR vesicles prepared from mouse heart; host or cells: mouse heart SR vesicles
T4 sequence (P61014 whole entry partner): as the sequence (P61012 whole entry partner) above, with D2E counted along it
T4 sequence (O55143 1-998 isoform O55143-2): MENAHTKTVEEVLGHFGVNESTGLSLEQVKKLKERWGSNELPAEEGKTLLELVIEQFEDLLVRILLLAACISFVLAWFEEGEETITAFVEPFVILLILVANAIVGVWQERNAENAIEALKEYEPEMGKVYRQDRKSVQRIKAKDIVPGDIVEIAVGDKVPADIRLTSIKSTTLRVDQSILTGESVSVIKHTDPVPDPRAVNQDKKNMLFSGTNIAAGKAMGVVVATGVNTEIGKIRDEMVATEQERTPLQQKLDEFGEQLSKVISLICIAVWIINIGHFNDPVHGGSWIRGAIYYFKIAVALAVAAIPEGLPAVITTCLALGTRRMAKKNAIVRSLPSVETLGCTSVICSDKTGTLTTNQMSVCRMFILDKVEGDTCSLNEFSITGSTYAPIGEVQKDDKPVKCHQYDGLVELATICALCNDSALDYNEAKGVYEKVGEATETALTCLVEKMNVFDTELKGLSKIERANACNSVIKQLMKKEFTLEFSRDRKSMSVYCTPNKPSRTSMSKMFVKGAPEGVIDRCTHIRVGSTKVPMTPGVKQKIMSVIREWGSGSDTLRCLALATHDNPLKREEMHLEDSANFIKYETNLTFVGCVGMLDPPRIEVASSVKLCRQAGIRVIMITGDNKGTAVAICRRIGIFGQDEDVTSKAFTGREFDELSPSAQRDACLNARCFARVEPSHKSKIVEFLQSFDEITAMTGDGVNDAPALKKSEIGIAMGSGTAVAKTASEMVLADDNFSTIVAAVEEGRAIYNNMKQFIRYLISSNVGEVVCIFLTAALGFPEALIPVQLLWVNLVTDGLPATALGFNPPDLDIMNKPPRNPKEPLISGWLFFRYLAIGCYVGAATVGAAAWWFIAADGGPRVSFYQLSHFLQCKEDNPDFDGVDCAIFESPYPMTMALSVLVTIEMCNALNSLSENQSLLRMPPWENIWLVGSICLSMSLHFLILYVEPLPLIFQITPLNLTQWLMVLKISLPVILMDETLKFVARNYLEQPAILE

cells = settings: cited from earlier work
[3] = cited from earlier work
[4] = AS added every 24 h for 72 h, read-out: Experiment 2 (EC50)
[5] = AS added every 24 h for 72 h, read-out: Experiment 3 (EC50)
[6] = mean of 3 independent experiments, read-out: Mean EC50
[7] = range given for both cell lines, read-out: EC50 growth inhibition over a series of three separate experiments

Question: With `[Na+].[Na+].[O-][N+]([O-])=NO` [Angeli's salt] as the molecule, how does the pEC50 ([1]; AS added every 24 h for 72 h, 50% growth inhibition, read-out: Experiment 1 (EC50)) read?
Answer: The pEC50 was 2.85.

Question: And the pEC50 [1, 4]?
Answer: The pEC50 was 3.15.

Question: What about the pEC50 [1, 5] of the same molecule?
Answer: Its pEC50 is 2.85.

Question: What about the pEC50 [1, 6] of the same molecule?
Answer: The pEC50 was 2.93.

Question: What about the pEC50 [1, 7] of the same molecule?
Answer: Its pEC50 is 2.77 to 3.00.

Question: And the pEC50 ([2]; AS added every 24 h for 72 h, read-out: Experiment 1 (EC50))?
Answer: The pEC50 was 2.52.

Question: And the pEC50 [2, 4]?
Answer: Its pEC50 is 3.05.

Question: And the pEC50 [2, 5]?
Answer: The pEC50 was 2.92.

Question: And the pEC50 [2, 6]?
Answer: The pEC50 was 2.77.

Question: What about the pEC50 ([2]; mean of experiments 2 and 3 only (experiment 1 left out), read-out: Mean EC50) of the same molecule?
Answer: Its pEC50 is 2.98.

Question: What about the pEC50 [2, 7] of the same molecule?
Answer: Its pEC50 is 2.77 to 3.00.

Question: What about the “E2P decay, accelerated initial decay phase” value (SERCA2a; without AS 11 s^−1) of the same molecule?
Answer: Its value is 77 s⁻¹.

Question: What about the E2P decay pattern (SERCA2a; without AS monophasic) of the same molecule?
Answer: Its E2P decay pattern is “biphasic decay pattern”.

Question: And the “A1 (%) amplitude fast phase” value (SERCA2a alone; 0° C.)?
Answer: Its value is 23%.

Question: What about the “A2 (%) amplitude slow phase” value (SERCA2a alone; 0° C.) of the same molecule?
Answer: Its value is 77%.

Question: What about the “k1” value (SERCA2a alone; 0° C.) of the same molecule?
Answer: The value was 4.64 s⁻¹.

Question: What about the “k2” value (SERCA2a alone; 0° C.) of the same molecule?
Answer: The value was 0.174 s⁻¹.

Question: And the stimulation of dephosphorylation (SERCA2a alone; microsomes expressing SERCA2a alone)?
Answer: Its stimulation of dephosphorylation is “No additional stimulation”.

Question: And the “A1 (%) amplitude fast phase” value (SERCA2a + PLB (−C); 0.25 mM AS, 0° C.)?
Answer: The value was 100%.

Question: What about the “k1” value (SERCA2a + PLB (−C); 0.25 mM AS, 0° C.) of the same molecule?
Answer: Its value is 0.18 s⁻¹.

Question: What about the “stimulation of dephosphorylation by nitroxyl” value (SERCA2a + PLB (−C); mutant PLB, all 3 transmembrane cysteines Cys→Ala) of the same molecule?
Answer: Its value is “no stimulation”.

Question: And the “A1 (%) amplitude fast phase” value (SERCA2a + PLB (WT); 0.25 mM AS, 0° C.)?
Answer: The value was 11%.

Question: And the “A2 (%) amplitude slow phase” value (SERCA2a + PLB (WT); 0.25 mM AS, 0° C.)?
Answer: Its value is 89%.

Question: And the “k1” value (SERCA2a + PLB (WT); 0.25 mM AS, 0° C.)?
Answer: Its value is 5.00 s⁻¹.

Question: And the “k2” value (SERCA2a + PLB (WT); 0.25 mM AS, 0° C.)?
Answer: Its value is 0.154 s⁻¹.

Question: What about the dephosphorylation rate (SERCA2a + PLB (WT); 0.25 mM AS, EGTA chase, from 0.5 s^−1 without AS) of the same molecule?
Answer: The dephosphorylation rate was 5 s⁻¹.

Question: What about the stimulation of dephosphorylation (SERCA2a + PLB (WT); brief exposure to 0.25 mM AS, EGTA chase) of the same molecule?
Answer: The stimulation of dephosphorylation was 10 fold.

Question: And the “effect on Ca^2+ uptake” value (SR Ca^2+ pump (SERCA2a))?
Answer: Its value is “activates Ca^2+uptake”.

Question: And the cell permeation (cells)?
Answer: The cell permeation was “rapidly permeates cells”.

Question: What about the water solubility [3] of the same molecule?
Answer: Its water solubility is “highly water soluble”.

Source: patent US20090280194A1, “USE OF NITROXYL (HNO) FOR THE TREATMENT OF CANCERS OVEREXPRESSING MAT-8” (priority 2008, published 2009)
